According to the OligoGym collection:
HELM strings list units from the 5' end as sugar, base in round brackets, then linkage (d deoxyribose, r ribose, m 2'-O-methyl, p phosphodiester). Strings are as the collection lists them; they lack the last nucleoside at the 3' end of the tested compound. [moe] = 2'-O-(2-methoxyethyl) (MOE); [sp] = phosphorothioate linkage; [m5C] = 5-methylcytosine

Molecular target: GFAP
Experiment: mouse, dose not given
Details: ASO

Substance	3 h FOB score
RNA1{[moe]([m5C])[sp].[moe](T)p.[moe](A)p.[moe](G)p.[moe](T)p.d([m5C])[sp].d(A)[sp].d(G)[sp].d([m5C])[sp].d([m5C])[sp].d(T)[sp].d(G)[sp].d(G)[sp].d(T)[sp].d(T)[sp].[moe](A)p.[moe](G)p.[moe]([m5C])[sp].[moe]([m5C])}$$$$ (last 3' nucleoside missing)	2 score 0-7
RNA1{[moe]([m5C])[sp].[moe]([m5C])p.[moe](T)p.[moe](G)p.[moe](T)p.[moe](G)p.d(A)[sp].d([m5C])[sp].d(T)[sp].d(A)[sp].d(T)[sp].d([m5C])[sp].d(T)[sp].d(A)[sp].d(G)[sp].d(G)[sp].[moe](A)p.[moe](T)[sp].[moe](T)}$$$$ (last 3' nucleoside missing)	1 score 0-7
RNA1{[moe](T)[sp].[moe](G)p.[moe](T)p.[moe](G)p.[moe]([m5C])[sp].d(T)[sp].d(T)[sp].d(T)[sp].d(A)[sp].d(G)[sp].d(T)[sp].d(G)[sp].d(A)[sp].d([m5C])[sp].d([m5C])[sp].[moe](T)p.[moe](G)p.[moe](T)[sp].[moe](G)}$$$$ (last 3' nucleoside missing)	5 score 0-7
RNA1{[moe](T)[sp].[moe]([m5C])p.[moe](A)p.[moe]([m5C])p.[moe](A)p.[moe](T)p.d(T)[sp].d([m5C])[sp].d(A)[sp].d([m5C])[sp].d(T)[sp].d(A)[sp].d(A)[sp].d(T)[sp].d(A)[sp].d(T)[sp].[moe](T)p.[moe](T)[sp].[moe](A)}$$$$ (last 3' nucleoside missing)	0 score 0-7
RNA1{[moe](T)[sp].[moe](T)p.[moe](G)p.[moe](G)p.[moe]([m5C])p.[moe](A)p.d(G)[sp].d(T)[sp].d(A)[sp].d(T)[sp].d(T)[sp].d(A)[sp].d([m5C])[sp].d([m5C])[sp].d(T)[sp].d([m5C])[sp].[moe](T)p.[moe](A)[sp].[moe]([m5C])}$$$$ (last 3' nucleoside missing)	0 score 0-7
RNA1{[moe](T)[sp].[moe](G)p.[moe](T)p.[moe]([m5C])p.[moe](T)p.[moe](T)p.d(T)[sp].d(A)[sp].d(T)[sp].d(T)[sp].d(T)[sp].d(T)[sp].d(T)[sp].d([m5C])[sp].d([m5C])[sp].d(T)[sp].[moe]([m5C])p.[moe](A)[sp].[moe](G)}$$$$ (last 3' nucleoside missing)	1 score 0-7
RNA1{[moe](G)[sp].[moe](T)p.[moe](G)p.[moe](A)p.[moe]([m5C])[sp].d(T)[sp].d(A)[sp].d(T)[sp].d([m5C])[sp].d(T)[sp].d(A)[sp].d(G)[sp].d(G)[sp].d(A)[sp].d(T)[sp].[moe](T)p.[moe](T)p.[moe](G)[sp].[moe](G)}$$$$ (last 3' nucleoside missing)	6 score 0-7
RNA1{[moe]([m5C])[sp].[moe](G)p.[moe](G)p.[moe]([m5C])p.[moe](T)[sp].d([m5C])[sp].d(T)[sp].d([m5C])[sp].d(T)[sp].d([m5C])[sp].d(A)[sp].d(T)[sp].d([m5C])[sp].d(T)[sp].d(G)[sp].[moe](T)p.[moe]([m5C])p.[moe](A)[sp].[moe](A)}$$$$ (last 3' nucleoside missing)	2 score 0-7
RNA1{[moe](T)[sp].[moe](T)p.[moe](T)p.[moe](A)p.[moe](T)p.[moe]([m5C])p.d(T)[sp].d(G)[sp].d(T)[sp].d(G)[sp].d([m5C])[sp].d(T)[sp].d(T)[sp].d(T)[sp].d(A)[sp].d(G)[sp].[moe](T)p.[moe](G)[sp].[moe](A)}$$$$ (last 3' nucleoside missing)	3 score 0-7
RNA1{[moe](A)[sp].[moe]([m5C])p.[moe](T)p.[moe](A)p.d(T)[sp].d([m5C])[sp].d(T)[sp].d(A)[sp].d(G)[sp].d(G)[sp].d(A)[sp].d(T)[sp].d(T)[sp].d(T)[sp].[moe](G)p.[moe](G)p.[moe]([m5C])p.[moe](A)[sp].[moe](G)}$$$$ (last 3' nucleoside missing)	2 score 0-7
RNA1{[moe](T)[sp].[moe](A)p.[moe](T)p.[moe](T)p.[moe](A)[sp].d(G)[sp].d(G)[sp].d(A)[sp].d(T)[sp].d([m5C])[sp].d([m5C])[sp].d([m5C])[sp].d(A)[sp].[moe](T)p.[moe]([m5C])p.[moe](T)[sp].[moe](A)}$$$$ (last 3' nucleoside missing)	3 score 0-7
RNA1{[moe](A)[sp].[moe](T)p.[moe](T)p.[moe](T)p.[moe](G)[sp].d(T)[sp].d([m5C])[sp].d(T)[sp].d(T)[sp].d(T)[sp].d(A)[sp].d(T)[sp].d(T)[sp].d(T)[sp].d(T)[sp].[moe](T)p.[moe]([m5C])p.[moe]([m5C])[sp].[moe](T)}$$$$ (last 3' nucleoside missing)	0 score 0-7
RNA1{[moe](G)[sp].[moe](G)p.[moe]([m5C])p.[moe](A)p.[moe](G)p.d(T)[sp].d(A)[sp].d(T)[sp].d(T)[sp].d(A)[sp].d([m5C])[sp].d([m5C])[sp].d(T)[sp].d([m5C])[sp].d(T)[sp].[moe](A)p.[moe]([m5C])p.[moe](T)[sp].[moe](A)}$$$$ (last 3' nucleoside missing)	3 score 0-7
RNA1{[moe](G)[sp].[moe](T)p.[moe](A)p.[moe](G)p.[moe](T)[sp].d(T)[sp].d(T)[sp].d([m5C])[sp].d([m5C])[sp].d(T)[sp].d(T)[sp].d(T)[sp].d(T)[sp].d(A)[sp].d([m5C])[sp].[moe]([m5C])p.[moe](A)p.[moe](A)[sp].[moe](G)}$$$$ (last 3' nucleoside missing)	1 score 0-7
RNA1{[moe]([m5C])[sp].[moe](A)p.[moe](G)p.[moe]([m5C])p.[moe]([m5C])p.[moe](T)p.d(G)[sp].d(G)[sp].d(T)[sp].d(T)[sp].d(A)[sp].d(G)[sp].d([m5C])[sp].d([m5C])[sp].d(T)[sp].d(T)[sp].[moe](T)p.[moe]([m5C])[sp].[moe](T)}$$$$ (last 3' nucleoside missing)	4 score 0-7
RNA1{[moe](T)[sp].[moe]([m5C])p.[moe](A)p.[moe]([m5C])p.[moe](A)[sp].d([m5C])[sp].d(T)[sp].d([m5C])[sp].d([m5C])[sp].d(T)[sp].d([m5C])[sp].d(A)[sp].d(G)[sp].d([m5C])[sp].d(T)[sp].[moe](A)p.[moe](G)p.[moe](G)[sp].[moe](T)}$$$$ (last 3' nucleoside missing)	1 score 0-7
RNA1{[moe](T)[sp].[moe]([m5C])p.[moe]([m5C])p.[moe](T)p.[moe]([m5C])[sp].d(A)[sp].d(A)[sp].d(G)[sp].d(A)[sp].d(A)[sp].d([m5C])[sp].d([m5C])[sp].d(G)[sp].d(G)[sp].d(A)[sp].[moe](T)p.[moe]([m5C])p.[moe](T)[sp].[moe]([m5C])}$$$$ (last 3' nucleoside missing)	1 score 0-7
RNA1{[moe](T)[sp].[moe](G)p.[moe](A)p.[moe]([m5C])p.[moe](T)p.d(A)[sp].d(T)[sp].d([m5C])[sp].d(T)[sp].d(A)[sp].d(G)[sp].d(G)[sp].d(A)[sp].d(T)[sp].d(T)[sp].[moe](T)p.[moe](G)p.[moe](G)[sp].[moe]([m5C])}$$$$ (last 3' nucleoside missing)	3 score 0-7
RNA1{[moe](A)[sp].[moe](T)p.[moe](T)p.[moe]([m5C])p.[moe](A)[sp].d([m5C])[sp].d(T)[sp].d(A)[sp].d(A)[sp].d(T)[sp].d(A)[sp].d(T)[sp].d(T)[sp].[moe](T)p.[moe](A)p.[moe](A)[sp].[moe]([m5C])}$$$$ (last 3' nucleoside missing)	0 score 0-7
